Results as given in patent US10155733B2, “N-aralkylcarbonyl-piperazine and -homopiperazine compounds and personal care compositions comprising the same” (Conopco, Inc., priority 2015, dated 2018).

Tested on: not listed separately
Experiment: pH measurements of test compound solutions
Format: physicochemical
Settings: not given
Description: Equimolar amounts of test compounds were used instead of weight % amounts to ensure a fair (molar-basis) comparison between test compounds. […] The pH of all test solutions was measured @ 22° C. using a Corning pH meter model 430 with a flat surface combo w/RJ electrode. The pH meter was calibrated using standard pH 7 & 12 buffers.

| Structure (SMILES) | Measured pH of solution |
| --- | --- |
| O=C(N1CCNCC1)C(O)(c1ccccc1)C1CCCC1 (stereo not drawn) [Compound 6b] | 10.0 |
| O=C(N1CCCNCC1)C(O)(c1ccccc1)C1CCCC1 (stereo not drawn) [Compound 6j] | 9.9 |

Same assay, conditions: 79 mM (equimolar) in isopropyl alcohol/water, 22° C.

| Measured pH of solution | Structure (SMILES) |
| --- | --- |
| 11.0 | CN1CCNCC1 [Compound 14] |
| 11.5 | CN1CCCNCC1 [Compound 15] |

Target: human M3 receptor (Homo sapiens (Human), UniProt P20309)
Sequence (P20309 whole entry): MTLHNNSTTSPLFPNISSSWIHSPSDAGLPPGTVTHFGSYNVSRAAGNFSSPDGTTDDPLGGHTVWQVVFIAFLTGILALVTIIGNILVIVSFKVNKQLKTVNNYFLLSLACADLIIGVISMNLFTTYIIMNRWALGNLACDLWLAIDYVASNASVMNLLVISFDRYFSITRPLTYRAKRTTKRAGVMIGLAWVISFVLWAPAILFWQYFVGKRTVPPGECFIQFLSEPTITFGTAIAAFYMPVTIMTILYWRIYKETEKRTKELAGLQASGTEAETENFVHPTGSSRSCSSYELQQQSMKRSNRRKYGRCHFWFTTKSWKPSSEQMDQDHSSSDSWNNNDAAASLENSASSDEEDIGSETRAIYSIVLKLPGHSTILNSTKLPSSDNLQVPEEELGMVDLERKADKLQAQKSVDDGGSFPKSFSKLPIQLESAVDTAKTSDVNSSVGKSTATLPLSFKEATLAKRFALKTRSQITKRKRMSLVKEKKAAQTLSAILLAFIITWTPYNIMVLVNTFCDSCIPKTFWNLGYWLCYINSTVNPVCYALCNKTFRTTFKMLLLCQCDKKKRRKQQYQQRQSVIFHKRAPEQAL
Experiment: Muscarinic 3 receptor binding assay (3H-scopolamine displacement)
Settings: not given
Description: The muscarinic 3 receptor binding assay was adapted from Perkin Elmer. […] Atropine (Sigma-Aldrich, St. Louis, Mo.) was used as a positive control. […] The reaction mixtures were then added to matrix 96-well GFC filtration microtiter plates that had been previously pretreated with 0.5% polyethylimine (100 μL) for 4 h and filtered. The binding reactions were terminated by filtering through the GFC plates and washing & filtering with ice-cold phosphate saline buffer (5×100 μL). Once the filters were dry, microscint scintillation cocktail (100 μL) was added to each well, allowed to sit for 20 min and the plates analyzed using a TopCount scintillation counter. […] Curve fitting of % inhibition versus concentration using Excell software allowed determination of IC50 values for test compounds.

| Structure (SMILES) | IC50 |
| --- | --- |
| O=C(N1CCN(CC(O)c2ccccc2)CC1)C(O)(c1ccccc1)C1CCCC1 (stereo not drawn) [Compound 11] | 4.3 µM |
| O=C(N1CCN(CCOc2ccccc2)CC1)C(O)(c1ccccc1)C1CCCC1 (stereo not drawn) [Compound 9c] | 1.2 µM |
| O=C(N1CCN(C/C=C/c2ccccc2)CC1)C(O)(c1ccccc1)C1CCCC1 (stereo not drawn) [Compound 7e] | 0.195 µM |
| O=C(C(c1ccccc1)C1CCCC1)N1CCN(CCc2ccccc2)CC1 (stereo not drawn) [Compound 7a] | 1.8 µM |
| O=C(N1CCN(CCCc2ccccc2)CC1)C(O)(c1ccccc1)C1CCCC1 (stereo not drawn) [Compound 7d] | 0.063 µM |
| CC(Cc1ccc2c(c1)OCO2)CN1CCN(C(=O)C(O)(c2ccccc2)C2CCCC2)CC1 (stereo not drawn) [Compound 7i] | 4.6 µM |
| COc1ccc(CCN2CCN(C(=O)C(O)(c3ccccc3)C3CCCC3)CC2)cc1 (stereo not drawn) [Compound 9d] | 0.357 µM |
| O=C(N1CCN(CCc2ccccc2)CC1)C(O)(c1ccccc1)C1CCCC1 (stereo not drawn) [Compound 7f] | 4.7 µM |
| O=C(CN1CCN(C(=O)C(O)(c2ccccc2)C2CCCC2)CC1)c1ccccc1 (stereo not drawn) [Compound 9h] | 2.7 µM |

Same assay, conditions: CHO cell membranes expressing human M3 receptor, 3H-scopolamine

| IC50 | Structure (SMILES) |
| --- | --- |
| 6 µM | O=C(C(c1ccccc1)C1CCCC1)N1CCN(CCC2CCCCC2)CC1 (stereo not drawn) [Compound 9a] |
| 0.409 µM | CN1CCCN(C(=O)C(c2ccccc2)C2CCCC2)CC1 (stereo not drawn) [Compound 3f] |
| 7.9 µM | CCCCCCN1CCN(C(=O)C(c2ccccc2)C2CCCC2)CC1 (stereo not drawn) [Compound 3d] |
| 5.3 µM | CN1CCN(C(=O)C(c2ccccc2)C2CCCCC2)CC1 (stereo not drawn) [Compound 3a] |
| 2.1 µM | CN1CCN(C(=O)C(c2ccccc2)C2CCCC2)CC1 (stereo not drawn) [Compound 3b] |
| 2.1 µM | O=C(C(c1ccccc1)C1CCCC1)N1CCN(CCCc2ccccc2)CC1 (stereo not drawn) [Compound 7b] |

| Structure (SMILES) | IC50 |
| --- | --- |
| O=C(C(c1ccccc1)C1CCCC1)N1CCN(C/C=C/c2ccccc2)CC1 (stereo not drawn) [Compound 7c] | 0.599 µM |

Tested on: human living skin equivalents
Experiment: not given
Format: cell-based
Settings: not given

| Structure (SMILES) | % Increase in Ki-67 stained positive cells over vehicle |
| --- | --- |
| O=C(N1CCN(CCCc2ccccc2)CC1)C(O)(c1ccccc1)C1CCCC1 (stereo not drawn) [Compound 7d] | 127% |
